# Measurements reported in patent publication US20150010928A1, “MEANS AND METHODS FOR ASSESSING AN ENDOCRINE DISEASE OR DISORDER” (priority 2012, published 2015).
# Marks after values point to notes of the source that are not given here.
# System: male rats
# Assay: Plasma metabolite profiling (GC-MS, LC-MS, SPE-LC-MS) in male rats dosed once daily over 28 days (OECD 407)
# Type: in vivo, rat
# Parameters: key to erythro-Sphingoside (d18:1) / Tricosanoic acid (C23:0) / beta-Sitosterol / Tryptophan: ratio of treated group mean to untreated control group mean
# Settings: high dose
# Method: Each dose group in the studies consisted of five rats per sex. Additional groups of each 5 male and female animals served as controls. […] All animals of the animal population were kept under the same constant temperature (20-24±3° C.) and the same constant humidity (30-70%). The animals of the animal population were fed ad libitum. The food to be used was essentially free of chemical or microbial contaminants. Drinking water was also offered ad libitum. Accordingly, the water was free of chemical and microbial contaminants as laid down in the European Drinking Water Directive 98/83/EG. The illumination period was 12 hours light followed by 12 hours darkness (12 hours light, from 6:00 to 18:00, and 12 hours darkness, from 18:00 to 6:00). […] The test substances (compounds) in the Tables 1 to 17 below were dosed and administered as described in the Table 18.
# In the morning of day 7, 14, and 28, blood was taken from the retroorbital venous plexus from fasted anaesthetized animals. From each animal, 1 ml of blood was collected with EDTA as anticoagulant. The samples were centrifuged for generation of plasma. All plasma samples were covered with a N2 atmosphere and then stored at −80° C. until analysis.
# For mass spectrometry-based metabolite profiling analyses plasma samples were extracted and a polar and a non-polar (lipid) fraction was obtained. For GC-MS analysis, the non-polar fraction was treated with methanol under acidic conditions to yield the fatty acid methyl esters. Both fractions were further derivatised with O-methyl-hydroxyamine hydrochloride and pyridine to convert Oxogroups to O-methyloximes and subsequently with a silylating agent before analysis. In LC-MS analysis, both fractions were reconstituted in appropriate solvent mixtures. HPLC was performed by gradient elution on reversed phase separation columns. Mass spectrometric detection which allows target and high sensitivity MRM (Multiple Reaction Monitoring) profiling in parallel to a full screen analysis was applied as described in WO2003073464.
# Steroids and their metabolites were measured by online SPE-LC-MS (Solid phase extraction-LC-MS).
# Following comprehensive analytical validation steps, the data for each analyte were normalized against data from pool samples. These samples were run in parallel through the whole process to account for process variability. The significance of treatment group values specific for sex, treatmentduration and metabolite was determined by comparing means of the treated groups to the means of the respective untreated control groups using WELCH-test and quantified with treatment ratios versus control and p-values.
# The identification of the most important biomarkers per toxicity pattern was done by a ranking of the analytes in the tables below. Therefore the metabolic changes in reference treatments of a given pattern (shown in the table) were compared with changes of the same metabolite in other unrelated treatments. […] The maximum absolute value of the respective TVALUE was taken to indicate the most important metabolite for the pattern.
compound,measurement,setting,value
OCCNCCO [Diethanolamine],Cholesterol,"m7, Table 14b",0.75
same,Choline plasmalogen No 02,"m7, Table 14b",0.89
same,Lignoceric acid (C24:0),"m7, Table 14b",0.7
same,"Sphingomyelin (d18:1, C16:0)","m7, Table 14b",0.68
same,"Sphingomyelin (d18:2, C16:0)","m7, Table 14b",0.74
same,erythro-Sphingosine (d18:1),"m7, Table 14b",0.62
same,Cholesterol,"m14, Table 14b",0.72
same,Choline plasmalogen No 02,"m14, Table 14b",0.68
same,Lignoceric acid (C24:0),"m14, Table 14b",0.68
same,"Sphingomyelin (d18:1, C16:0)","m14, Table 14b",0.71
same,"Sphingomyelin (d18:2, C16:0)","m14, Table 14b",0.73
same,erythro-Sphingosine (d18:1),"m14, Table 14b",0.58
same,Cholesterol,"m28, Table 14b",0.69
same,Choline plasmalogen No 02,"m28, Table 14b",0.74
same,Lignoceric acid (C24:0),"m28, Table 14b",0.67
same,"Sphingomyelin (d18:1, C16:0)","m28, Table 14b",0.7
same,"Sphingomyelin (d18:2, C16:0)","m28, Table 14b",0.63
same,erythro-Sphingosine (d18:1),"m28, Table 14b",0.52
CC/C(=C(\c1ccccc1)c1ccc(OCCN(C)C)cc1)c1ccccc1 [Tamoxifen],Cholesterol,"m7, Table 14b",0.45
same,Choline plasmalogen No 02,"m7, Table 14b",0.59
same,Lignoceric acid (C24:0),"m7, Table 14b",0.49
same,"Sphingomyelin (d18:1, C16:0)","m7, Table 14b",0.41
same,"Sphingomyelin (d18:2, C16:0)","m7, Table 14b",0.49
same,erythro-Sphingosine (d18:1),"m7, Table 14b",0.28
same,Cholesterol,"m14, Table 14b",0.51
same,Choline plasmalogen No 02,"m14, Table 14b",0.6
same,Lignoceric acid (C24:0),"m14, Table 14b",0.63
same,"Sphingomyelin (d18:1, C16:0)","m14, Table 14b",0.63
same,"Sphingomyelin (d18:2, C16:0)","m14, Table 14b",0.52
same,erythro-Sphingosine (d18:1),"m14, Table 14b",0.41
same,Cholesterol,"m28, Table 14b",0.51
same,Choline plasmalogen No 02,"m28, Table 14b",0.68
same,Lignoceric acid (C24:0),"m28, Table 14b",0.63
same,"Sphingomyelin (d18:1, C16:0)","m28, Table 14b",0.6
same,"Sphingomyelin (d18:2, C16:0)","m28, Table 14b",0.6
same,erythro-Sphingosine (d18:1),"m28, Table 14b",0.42
Cc1cccc(C)c1N(Cn1cccn1)C(=O)CCl [Metazachlor],3-O-Methylsphingosine (d18:1),"m7, Table 10a",2.88 *
same,5-O-Methylsphingosine (d18:1),"m7, Table 10a",3.04 *
same,Cysteine,"m7, Table 10a",1.07^
same,Lignoceric acid (C24:0),"m7, Table 10a",1.6 *
same,Nervonic acid (C24:cis[15]1),"m7, Table 10a",3.17 *
same,Oleic acid (C18:cis[9]1),"m7, Table 10a",1.09^
same,Stearic acid (C18:0),"m7, Table 10a",1.45 *
same,alpha-Tocopherol,"m7, Table 10a",1.71 *
same,erythro-Sphingoside (d18:1),"m7, Table 10a",2.3 *
same,threo-Sphingosine (d18:1),"m7, Table 10a",2.18 *
same,Oleic acid (C18:cis[9]1),"m7, Table 10b",1.09
same,"Phosphatidylcholine (C16:0, C16:0)","m7, Table 10b",0.98
same,Thyroxine (T4),"m7, Table 10b",0.98
same,trans-4-Hydroxyproline,"m7, Table 10b",0.93
same,3-O-Methylsphingosine (d18:1),"m14, Table 10a",4.31 *
same,5-O-Methylsphingosine (d18:1),"m14, Table 10a",4.66 *
same,Cysteine,"m14, Table 10a",0.86
same,Lignoceric acid (C24:0),"m14, Table 10a",2.38 *
same,Nervonic acid (C24:cis[15]1),"m14, Table 10a",4 *
same,Oleic acid (C18:cis[9]1),"m14, Table 10a",1.82 *
same,Stearic acid (C18:0),"m14, Table 10a",2.36 *
same,alpha-Tocopherol,"m14, Table 10a",2.2 *
same,erythro-Sphingoside (d18:1),"m14, Table 10a",3.47 *
same,threo-Sphingosine (d18:1),"m14, Table 10a",3.13 *
same,Oleic acid (C18:cis[9]1),"m14, Table 10b",1.82^
same,"Phosphatidylcholine (C16:0, C16:0)","m14, Table 10b",0.83 *
same,Thyroxine (T4),"m14, Table 10b",0.56 *
same,trans-4-Hydroxyproline,"m14, Table 10b",0.72 *
same,3-O-Methylsphingosine (d18:1),"m28, Table 10a",4.4 *
same,5-O-Methylsphingosine (d18:1),"m28, Table 10a",4.51 *
same,Cysteine,"m28, Table 10a",1.41 *
same,Lignoceric acid (C24:0),"m28, Table 10a",2.11 *
same,Nervonic acid (C24:cis[15]1),"m28, Table 10a",3.63 *
same,Oleic acid (C18:cis[9]1),"m28, Table 10a",1.82 *
same,Stearic acid (C18:0),"m28, Table 10a",2.59 *
same,alpha-Tocopherol,"m28, Table 10a",2.11 *
same,erythro-Sphingoside (d18:1),"m28, Table 10a",3.68 *
same,threo-Sphingosine (d18:1),"m28, Table 10a",3.33 *
same,Oleic acid (C18:cis[9]1),"m28, Table 10b",1.82^
same,"Phosphatidylcholine (C16:0, C16:0)","m28, Table 10b",0.79 *
same,Thyroxine (T4),"m28, Table 10b",0.74^
same,trans-4-Hydroxyproline,"m28, Table 10b",0.84 *
